Legend:
Assay type in all cases: cell-based, Staphylococcus aureus
[1] = system: MRSA strain containing pLA03::tetR; assay: MIC in recombinant strain, tetR overexpression; details: for MIC: Staphylococcus aureus, MRSA
Description: (§1) To corroborate the role as potential determinants of resistance, mtlA and tetR were overexpressed under control of an anhydrotetracycline (Atc)-inducible promoter, and the effect on sensitivity toward 3-bromo-PP was analysed (Fig. 4e). […] However, induction of mtlA or tetR expression in the presence of Atc strongly rendered the cells more susceptible to 3-bromo-PP resulting in MICs of 0.019 μM for mtlA and 0.078 μM for tetR overexpression, respectively. This translates into a […] and 8-fold increased sensitivity during mtlA or tetR overexpression, respectively, compared with the empty vector control (Fig. 4e).

[2] = system: MRSA strain containing pLA03::mtlA; assay: MIC in recombinant strain, mtlA overexpression; details: for MIC: Staphylococcus aureus, MRSA
Description: as §1

MtlA = assay: Global proteome analysis of sublethally treated cells; details: Mu50 cells, sublethal concentration allowing ca. 50% residual growth
Description: After in-solution digestion (ISD) peptides were desalted on home-made C18 StageTips (Rappsilber et al. [2007]). Briefly, the peptide solution was passed over the MeOH pre-conditioned and 0.5% formic acid (FA) equilibrated StageTip. Immobilised peptides were then washed twice with 0.5% (v/v) FA. Washed peptides were eluted from the StageTips with 80% (v/v) ACN and 0.5% (v/v) FA and dried using a vacuum concentrator (Eppendorf). Before LC-MS, peptide samples were resuspended in 10 μL 0.1% (v/v) FA.
LC-MS/MS experiments were performed on an Orbitrap Elite instrument (Michalski et al. [2012]) (Thermo) that was coupled to an EASY-nLC 1000 liquid chromatography (LC) system (Thermo). […] Product ion spectra were recorded in a data-dependent fashion in the ion trap (ITMS) in a variable scan range and at a rapid scan rate. […] Peptides were analysed using a repeating cycle consisting of a full precursor ion scan (1.0 × 10^6 ions or 50 ms) followed by 15 product ion scans (1.0 × 10^4 ions or 100 ms), where peptides are isolated based on their intensity in the full survey scan (threshold of 500 counts) for tandem mass spectrum (MS2) generation that permits peptide sequencing and identification. […]
RAW spectra were submitted to an Andromeda (Cox et al. [2011]) search in MaxQuant (version 1.5.3.30) using the default settings (Cox and Mann [2008]). Label-free quantification was activated (Cox et al. [2014]). […]

[3] = induced with Atc (1 μg/mL anhydrotetracycline)

Oc1c(Br)cc(Br)c(Br)c1Oc1ccc(Br)cc1Br [3-bromo-PP, 3,4,6-tribromo-2-(2′,4′-dibromophenoxy)phenol]
MIC [1, 3]: 0.078 µM | MIC ([1]; non-induced): 0.312 µM | increased sensitivity compared with the empty vector control ([1]; tetR overexpression): 8 fold | MIC [2, 3]: 0.019 µM | MIC ([2]; non-induced): 0.312 µM | increased sensitivity compared with the empty vector control ([2]; mtlA overexpression): 33 fold | downregulation of MtlA protein (MtlA): approx. 2.5 fold
